Measured values from PMC4592835 (Bioorganic & medicinal chemistry letters, 2015).

Tests used:
[1] = test system: caspase-3/7; assay: Enzymatic activity of caspases-3/7 in treated MDA-MB-231 cells; assay type: cell-based, human; details: MDA-MB-231 cells treated at 10 μM
[2] = test system: human metastatic breast cancer line, MDA-MB-231; details: different experimental conditions; cited from earlier work

## CN[C@@H](C)C(=O)N[C@@H](CSCc1ccc(-c2ccc(CSC[C@H](NC(=O)[C@H](C)NC)C(=O)N3CCC[C@H]3C(=O)NC(c3ccccc3)c3ccccc3)cc2)cc1)C(=O)N1CCC[C@H]1C(=O)NC(c1ccccc1)c1ccccc1 [Compound D13]
[1]
  potency relative to monomer M11 in caspase-3/7 activation: ~ 2.5 ×

## CN[C@@H](C)C(=O)N[C@H]1CCCC[C@H]2CC[C@@H](C(=O)N[C@@H](c3ccccc3)c3cn(CCCCc4ccc(CCCCn5cc([C@@H](NC(=O)[C@@H]6CC[C@@H]7CCCC[C@H](NC(=O)[C@H](C)NC)C(=O)N76)c6ccccc6)nn5)cc4)nn3)N2C1=O [SM-164]
[2]
  in vivo activity profile compared with M11, in words: markedly improved activity profiles
